# Test results as given in patent US10175230B2, “Use of biomarkers for evaluating the effectiveness of active ingredients” (LABORATOIRES EXPANSCIENCE, priority 2013, dated 2019).
# Marks after values point to notes of the source that are not given here.
# Key:
# hyaluronic acid = assay: Production of hyaluronic acid by keratinocytes, ELISA of supernatants; assay type: cell-based, human; conditions: 10^−7 M, 24 hours, positive reference
# Description: Normal human epidermal keratinocytes were incubated in the presence of 0.005% and 0.05% avocado perseose or 10^-7 M retinoic acid (all-trans-retinoic acid; Sigma), positive reference.
# After 24 hours of incubation, hyaluronic acid produced by the keratinocytes was assayed in the cultured supernatants with an ELISA (Tebu). The quantity of hyaluronic acid measured was related to the number of living cells estimated by means of a neutral red assay.
# PAD1 = assay: Gene expression of peptidylarginine deiminase (PAD1) by RT-PCR; assay type: cell-based, human; conditions: 10^−7 M, 48 hours, positive reference
# Description: Normal human epidermal keratinocytes, cultured in differentiation-inducing medium (supplemented with Ca++), were incubated for 48 hours in the presence of 0.005% and 0.05% avocado perseose or 10^-7M vitamin D3 (1α,25-dihydroxyvitamin D3; Sigma), positive reference.
# At the conclusion of the treatment, the RNA were extracted and the gene expression of PAD1 was evaluated by RT-PCR; the reference gene GAPDH was used to normalize the results.
# [1] = tested on: Ehrlich ascites carcinoma tumor cells; conditions: perseitol associated with a potassium ion; Shibuya et al. 1999; cited from earlier work
compound,measurement,setting,value
"CC1=C(/C=C/C(C)=C/C=C/C(C)=C/C(=O)O)C(C)(C)CCC1 [Retinoic acid, all-trans-retinoic acid]",Hyaluronic acid (ng/ml/living cells),hyaluronic acid,544.024 ± 34.026 ng/ml/living cells
same,Increase of hyaluronic acid produced versus control cells,hyaluronic acid,+119% ***
"C=C1/C(=C\C=C2/CCC[C@]3(C)[C@@H]([C@H](C)CCCC(C)(C)O)CC[C@@H]23)C[C@@H](O)C[C@@H]1O [Vitamin D3, 1α,25-dihydroxyvitamin D3]",PAD1 (Relative Quantity normalized by GAPDH),PAD1,2.66
same,Stimulation of PAD1 gene expression versus control cells,PAD1,+166% **
"OCC(O)C(O)C(O)C(O)C(O)CO (centres unmarked) [perseitol, Perseitol]",Incorporation of 3H-leucine,[1],inhibits
